{"source": "PubChem BioAssay AID2060498", "about": "(Molecular Pharmacology Branch, DTP, NCI, 2025);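 also: spheroids exposed to compounds for 7 days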;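 as to viability, T/C: 100% = DMSO vehicle control viability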", "test_system": "171881-019-R-J1-PDC tumor spheroids, viability", "assay": "Anticancer human tumor 171881-019-R-J1-PDC patient-derived invasive breast carcinoma cell line growth inhibition [GQUAD]", "details": "spheroids with HUVEC and MSC; for IC50: curve of first compound; for viability, T/C: stronger effect = lower value", "summary_of_the_method": "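Multi-cell-type spheroids of tumor cells with HUVEC and mesenchymal stem cells, treated with drug combinations. Concentrations descend in half-log steps from near clinical Cmax, or from 10 microM where Cmax is unknown; viability read-out.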", "key": {"[1]": {"details": "second compound 0.0316 µM, first compound 0.0316 µM"}, "[2]": {"details": "second compound 0.0316 µM, first compound 0.1 µM"}, "[3]": {"details": "second compound 0.0316 µM, first compound 0.316 µM"}, "[4]": {"details": "second compound 0.0316 µM, first compound 1 µM"}, "[5]": {"details": "second compound 0.0316 µM, first compound 3.16 µM"}, "[6]": {"details": "second compound 0.0316 µM, first compound 10 µM"}, "[7]": {"details": "second compound 0.1 µM, first compound 0.0316 µM"}, "[8]": {"details": "second compound 0.1 µM, first compound 0.1 µM"}, "[9]": {"details": "second compound 0.1 µM, first compound 0.316 µM"}, "[10]": {"details": "second compound 0.1 µM, first compound 1 µM"}, "[11]": {"details": "second compound 0.1 µM, first compound 3.16 µM"}, "[12]": {"details": "second compound 0.1 µM, first compound 10 µM"}, "[13]": {"details": "second compound 0.316 µM, first compound 0.0316 µM"}, "[14]": {"details": "second compound 0.316 µM, first compound 0.1 µM"}, "[15]": {"details": "second compound 0.316 µM, first compound 0.316 µM"}, "[16]": {"details": "second compound 0.316 µM, first compound 1 µM"}, "[17]": {"details": "second compound 0.316 µM, first compound 3.16 µM"}, "[18]": {"details": "second compound 0.316 µM, first compound 10 µM"}, "[19]": {"details": "second compound 1 µM, first compound 0.0316 µM"}, "[20]": {"details": "second compound 1 µM, first compound 0.1 µM"}, "[21]": {"details": "second compound 1 µM, first compound 0.316 µM"}, "[22]": {"details": "second compound 1 µM, first compound 1 µM"}, "[23]": {"details": "second compound 1 µM, first compound 3.16 µM"}, "[24]": {"details": "second compound 1 µM, first compound 10 µM"}, "[25]": {"details": "second compound 3.16 µM, first compound 0.0316 µM"}, "[26]": {"details": "second compound 3.16 µM, first compound 0.1 µM"}, "[27]": {"details": "second compound 3.16 µM, first compound 0.316 µM"}, "[28]": {"details": "second compound 3.16 µM, first compound 1 µM"}, "[29]": {"details": "second compound 3.16 µM, first compound 3.16 µM"}, "[30]": {"details": "second compound 3.16 µM, first compound 10 µM"}, "[31]": {"details": "second compound 10 µM, first compound 0.0316 µM"}, "[32]": {"details": "second compound 10 µM, first compound 0.1 µM"}, "[33]": {"details": "second compound 10 µM, first compound 0.316 µM"}, "[34]": {"details": "second compound 10 µM, first compound 1 µM"}, "[35]": {"details": "second compound 10 µM, first compound 3.16 µM"}, "[36]": {"details": "second compound 10 µM, first compound 10 µM"}}}
{"smiles": "O=C(c1cc(Cc2n[nH]c(=O)c3ccccc23)ccc1F)N1CCN(C(=O)C2CC2)CC1", "note": "+ CN(C)c1ccc(Nc2c3ccc(NC(=O)CCN4CCCC4)cc3nc3cc(NC(=O)CCN4CCCC4)ccc23)cc1", "values": [{"measurement": "IC50", "setting": "second compound 0.0316 µM", "result": "> 10000", "unit": "nM"}, {"measurement": "IC50", "setting": "second compound 0.1 µM", "result": "> 10000", "unit": "nM"}, {"measurement": "IC50", "setting": "second compound 0.316 µM", "result": "> 10000", "unit": "nM"}, {"measurement": "IC50", "setting": "second compound 1 µM", "result": "< 31.6", "unit": "nM"}, {"measurement": "IC50", "setting": "second compound 3.16 µM", "result": "< 31.6", "unit": "nM"}, {"measurement": "IC50", "setting": "second compound 10 µM", "result": "< 31.6", "unit": "nM"}, {"measurement": "viability, T/C", "setting": "[1]", "result": 98.5, "unit": "%"}, {"measurement": "viability, T/C", "setting": "[2]", "result": 98.5, "unit": "%"}, {"measurement": "viability, T/C", "setting": "[3]", "result": 107, "unit": "%"}, {"measurement": "viability, T/C", "setting": "[4]", "result": 96.3, "unit": "%"}, {"measurement": "viability, T/C", "setting": "[5]", "result": 90.7, "unit": "%"}, {"measurement": "viability, T/C", "setting": "[6]", "result": 94.2, "unit": "%"}, {"measurement": "viability, T/C", "setting": "[7]", "result": 107, "unit": "%"}, {"measurement": "viability, T/C", "setting": "[8]", "result": 95.4, "unit": "%"}, {"measurement": "viability, T/C", "setting": "[9]", "result": 91.1, "unit": "%"}, {"measurement": "viability, T/C", "setting": "[10]", "result": 109, "unit": "%"}, {"measurement": "viability, T/C", "setting": "[11]", "result": 91.7, "unit": "%"}, {"measurement": "viability, T/C", "setting": "[12]", "result": 86.3, "unit": "%"}, {"measurement": "viability, T/C", "setting": "[13]", "result": 86.5, "unit": "%"}, {"measurement": "viability, T/C", "setting": "[14]", "result": 94.1, "unit": "%"}, {"measurement": "viability, T/C", "setting": "[15]", "result": 80.3, "unit": "%"}, {"measurement": "viability, T/C", "setting": "[16]", "result": 78.5, "unit": "%"}, {"measurement": "viability, T/C", "setting": "[17]", "result": 82, "unit": "%"}, {"measurement": "viability, T/C", "setting": "[18]", "result": 60.8, "unit": "%"}, {"measurement": "viability, T/C", "setting": "[19]", "result": 31.7, "unit": "%"}, {"measurement": "viability, T/C", "setting": "[20]", "result": 19.5, "unit": "%"}, {"measurement": "viability, T/C", "setting": "[21]", "result": 25.3, "unit": "%"}, {"measurement": "viability, T/C", "setting": "[22]", "result": 18.4, "unit": "%"}, {"measurement": "viability, T/C", "setting": "[23]", "result": 20.2, "unit": "%"}, {"measurement": "viability, T/C", "setting": "[24]", "result": 17.3, "unit": "%"}, {"measurement": "viability, T/C", "setting": "[25]", "result": 1.55, "unit": "%"}, {"measurement": "viability, T/C", "setting": "[26]", "result": 1.44, "unit": "%"}, {"measurement": "viability, T/C", "setting": "[27]", "result": 1.96, "unit": "%"}, {"measurement": "viability, T/C", "setting": "[28]", "result": 1.41, "unit": "%"}, {"measurement": "viability, T/C", "setting": "[29]", "result": 1.97, "unit": "%"}, {"measurement": "viability, T/C", "setting": "[30]", "result": 1.2, "unit": "%"}, {"measurement": "viability, T/C", "setting": "[31]", "result": 0.28, "unit": "%"}, {"measurement": "viability, T/C", "setting": "[32]", "result": 0.36, "unit": "%"}, {"measurement": "viability, T/C", "setting": "[33]", "result": 0.35, "unit": "%"}, {"measurement": "viability, T/C", "setting": "[34]", "result": 0.57, "unit": "%"}, {"measurement": "viability, T/C", "setting": "[35]", "result": 0.69, "unit": "%"}, {"measurement": "viability, T/C", "setting": "[36]", "result": 0.32, "unit": "%"}]}
{"smiles": "CC(=O)O[C@H]1C(=O)[C@@]2(C)[C@H]([C@H](OC(=O)c3ccccc3)[C@]3(O)C[C@H](OC(=O)[C@H](O)[C@@H](NC(=O)c4ccccc4)c4ccccc4)C(C)=C1C3(C)C)[C@]1(OC(C)=O)CO[C@@H]1C[C@@H]2O", "note": "+ Cc1cnc(CNC(=O)c2c(=O)c3ccc(N4CCCN(C)CC4)nc3n3c2sc2ccccc23)cn1", "values": [{"measurement": "IC50", "setting": "second compound 0.0316 µM", "result": "< 31.6", "unit": "nM"}, {"measurement": "IC50", "setting": "second compound 0.1 µM", "result": "< 31.6", "unit": "nM"}, {"measurement": "IC50", "setting": "second compound 0.316 µM", "result": "< 31.6", "unit": "nM"}, {"measurement": "IC50", "setting": "second compound 1 µM", "result": "< 31.6", "unit": "nM"}, {"measurement": "IC50", "setting": "second compound 3.16 µM", "result": "< 31.6", "unit": "nM"}, {"measurement": "IC50", "setting": "second compound 10 µM", "result": "< 31.6", "unit": "nM"}, {"measurement": "viability, T/C", "setting": "[1]", "result": 37.4, "unit": "%"}, {"measurement": "viability, T/C", "setting": "[2]", "result": 29.4, "unit": "%"}, {"measurement": "viability, T/C", "setting": "[3]", "result": 27.8, "unit": "%"}, {"measurement": "viability, T/C", "setting": "[4]", "result": 26, "unit": "%"}, {"measurement": "viability, T/C", "setting": "[5]", "result": 24.2, "unit": "%"}, {"measurement": "viability, T/C", "setting": "[6]", "result": 26.7, "unit": "%"}, {"measurement": "viability, T/C", "setting": "[7]", "result": 43.9, "unit": "%"}, {"measurement": "viability, T/C", "setting": "[8]", "result": 38, "unit": "%"}, {"measurement": "viability, T/C", "setting": "[9]", "result": 31.3, "unit": "%"}, {"measurement": "viability, T/C", "setting": "[10]", "result": 33.2, "unit": "%"}, {"measurement": "viability, T/C", "setting": "[11]", "result": 31.9, "unit": "%"}, {"measurement": "viability, T/C", "setting": "[12]", "result": 32.9, "unit": "%"}, {"measurement": "viability, T/C", "setting": "[13]", "result": 51.2, "unit": "%"}, {"measurement": "viability, T/C", "setting": "[14]", "result": 44.1, "unit": "%"}, {"measurement": "viability, T/C", "setting": "[15]", "result": 39.5, "unit": "%"}, {"measurement": "viability, T/C", "setting": "[16]", "result": 35, "unit": "%"}, {"measurement": "viability, T/C", "setting": "[17]", "result": 37.1, "unit": "%"}, {"measurement": "viability, T/C", "setting": "[18]", "result": 38.5, "unit": "%"}, {"measurement": "viability, T/C", "setting": "[19]", "result": 51.9, "unit": "%"}, {"measurement": "viability, T/C", "setting": "[20]", "result": 45.4, "unit": "%"}, {"measurement": "viability, T/C", "setting": "[21]", "result": 47, "unit": "%"}, {"measurement": "viability, T/C", "setting": "[22]", "result": 40.1, "unit": "%"}, {"measurement": "viability, T/C", "setting": "[23]", "result": 45, "unit": "%"}, {"measurement": "viability, T/C", "setting": "[24]", "result": 50.5, "unit": "%"}, {"measurement": "viability, T/C", "setting": "[25]", "result": 51.9, "unit": "%"}, {"measurement": "viability, T/C", "setting": "[26]", "result": 46.5, "unit": "%"}, {"measurement": "viability, T/C", "setting": "[27]", "result": 47, "unit": "%"}, {"measurement": "viability, T/C", "setting": "[28]", "result": 44.2, "unit": "%"}, {"measurement": "viability, T/C", "setting": "[29]", "result": 50.8, "unit": "%"}, {"measurement": "viability, T/C", "setting": "[30]", "result": 49.9, "unit": "%"}, {"measurement": "viability, T/C", "setting": "[31]", "result": 46.6, "unit": "%"}, {"measurement": "viability, T/C", "setting": "[32]", "result": 48.4, "unit": "%"}, {"measurement": "viability, T/C", "setting": "[33]", "result": 46, "unit": "%"}, {"measurement": "viability, T/C", "setting": "[34]", "result": 47.6, "unit": "%"}, {"measurement": "viability, T/C", "setting": "[35]", "result": 50.3, "unit": "%"}, {"measurement": "viability, T/C", "setting": "[36]", "result": 51.9, "unit": "%"}]}
